Article PMC12933330, “Data-Driven Design of PROTAC Linkers to Improve PROTAC Cell Membrane Permeability” (JACS Au, 2026)

Columns and labels:
Caco-2 cell membranes = test system: Caco-2 cell membranes; parameters: method as in PROTAC-DB 3.0; conditions: Caco-2 A-to-B; as recorded in PROTAC-DB 3.0; ref PROTAC-DB 3.0; cited from earlier work
[1] = Caco-2 cell membrane permeability study (transcellular transport, A-to-B); type: in vitro ADME; conditions: human; Caco-2, apical to basal, 10 μM compound, 2 h, 37 °C, 4% BSA in basal compartment; read-out: Ex. value, cell membrane permeability (Papp, AtoB)
Description: (§1) KT-474 (Catalog No. E1655), NX-2127 (Catalog No. E1381), MS4078 (Catalog No. S0072), dBET6 (Catalog No. S8762), and dBET57 (Catalog No. S0137) were purchased from Selleck Chemicals (Houston, TX, USA). […] The Caco-2 cell permeability assay using these PROTACs was outsourced to Axcelead Drug Discovery Partners, Inc. (Kanagawa, Japan). Caco-2 cells (American Type Culture Collection, Manassas, VA, USA) were cultured, and a transcellular transport study was performed. The cells were cultured in Transwell 96-well permeable support (pore size 0.4 μm, 0.11 cm^2 surface area) with a polycarbonate membrane (PSHT004S5, Millipore Corporation, Bedford, MA, USA). The cells were preincubated with bovine serum albumin (BSA)-free Hank’s balanced salt solution (HBSS) in the apical compartment (75 μL) and HBSS containing 4% BSA in the basal compartment (250 μL) for 10 min at 37 °C. Subsequently, transcellular transport was initiated by the addition of BSA-free HBSS to apical compartments containing 10 μM compounds. The assay was terminated by separating each assay plate after 2 h. Aliquots (50 μL) from the basolateral compartment were mixed with acetonitrile/methanol. After centrifugation, the compound concentrations in the supernatant were measured using liquid chromatography-tandem mass spectrometry (LC–MS/MS) and a Kinetex C18 column (2.6 μm, 2.1 × 30 mm). The apparent permeabilities (P app, AtoB) of the receivers were determined. Lucifer yellow was added onto the apical compartment at a concentration of 100 μM. The P app of lucifer yellow in the wells where each test compound was evaluated was reported. The P app value of each compound in the membrane permeability test was calculated from a one-point standard curve (0.1 μM) using the following equation. Papp=C×V/T×A×C0 where C (μM) is the concentration of the test compound on the basal side after incubation (measured value); V (mL) is the volume of the basolateral compartment (0.25 mL); T (s) is the permeation experiment time (7200 s); A (cm^2) is the membrane area (0.11 cm^2); and C0 (μM) is the concentration of test compound (measured value).

Caco-2 cells = assay: as above; type: in vitro ADME; conditions: Caco-2, A-to-B
Description: as §1

| SMILES | experimental value of the cell membrane permeability (Caco-2 cell membranes) [μcm/s] | Papp A→B at 2 h, 10 μM [1] [×10⁻⁶ cm/s] | cell membrane permeability, result in words (Caco-2 cells) |
| --- | --- | --- | --- |
| Cc1sc2c(c1C)C(c1ccc(Cl)cc1)=NC(CC(=O)NCc1cn(CCCCNC(=O)COc3ccc(C4CCC(=O)NC4=O)cc3)nn1)c1nnc(C)n1-2 (stereo not drawn) [Compound 2895] | 2.14 | – | – |
| Cn1c(=O)n(C2CCC(=O)NC2=O)c2cccc(C#CCOC3CCN(C[C@H]4CC[C@H](n5cc(NC(=O)c6cnn7ccc(N8C[C@H]9C[C@@H]8CO9)nc67)c(C(F)F)n5)CC4)CC3)c21 (stereo partly drawn) [KT-474] | – | 1.26 | relatively high cell membrane permeability |
| Cc1cc(Nc2ncc(Cl)c(Nc3ccccc3S(=O)(=O)C(C)C)n2)c(OC(C)C)cc1C1CCN(CC(=O)NCCNc2cccc3c2C(=O)N(C2CCC(=O)NC2=O)C3=O)CC1 (stereo not drawn) [MS4078] | – | 0.06 | – |
| NC(=O)c1ncc(N2CCCCC2)nc1Nc1ccc(C2CCN(C[C@H]3CCN(c4ccc5c(c4)C(=O)N(C4CCC(=O)NC4=O)C5=O)C3)CC2)cc1 (stereo partly drawn) [NX-2127] | – | 0.11 | – |
| Cc1sc2c(c1C)C(c1ccc(Cl)cc1)=NC(CC(=O)NCCCCCCCCNC(=O)COc1cccc3c1C(=O)N(C1CCC(=O)NC1=O)C3=O)c1nnc(C)n1-2 (stereo not drawn) [dBET6] | – | 0.99 | relatively high cell membrane permeability |
| Cc1sc2c(c1C)C(c1ccc(Cl)cc1)=NC(CC(=O)NCCNc1cccc3c1C(=O)N(C1CCC(=O)NC1=O)C3=O)c1nnc(C)n1-2 (stereo not drawn) [dBET57] | – | 0.52 | relatively high cell membrane permeability |
